How the values were obtained:
5-HT1A receptor = biological target: T1, 5-HT1A receptor (Homo sapiens, UniProt P08908); test: 5-HT1A receptor radioligand competition assay (SPA); assay type: binding
T1 construct: purchased Perkin Elmer 6110501400UA
T1 sequence (P08908 1-422): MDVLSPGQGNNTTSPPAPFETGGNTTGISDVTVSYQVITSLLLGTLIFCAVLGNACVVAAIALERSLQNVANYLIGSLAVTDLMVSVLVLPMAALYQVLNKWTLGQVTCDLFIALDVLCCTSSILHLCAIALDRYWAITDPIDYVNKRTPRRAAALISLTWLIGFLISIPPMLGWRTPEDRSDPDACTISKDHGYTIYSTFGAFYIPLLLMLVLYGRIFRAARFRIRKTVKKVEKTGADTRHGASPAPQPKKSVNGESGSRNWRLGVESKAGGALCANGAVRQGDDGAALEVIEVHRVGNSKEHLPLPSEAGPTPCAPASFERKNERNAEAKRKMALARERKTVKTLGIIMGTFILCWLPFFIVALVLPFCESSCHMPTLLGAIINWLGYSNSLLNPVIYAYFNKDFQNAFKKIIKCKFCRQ

[1] = tested on: Human NT2/D1 precursor cells (NT2/D1); test: Neuroplastogenicity assay using human model (NT2) neurons; assay type: cell-based; settings: RA-treated NT2 cells, 1 μM, 48 hours, vs 0.1% DMSO
Procedure: The compound with formula A(XXXII) was assayed for neuroplastogenic potential using the following procedure. Human NT2/D1 precursor cells (NT2/D1) were purchased from the American Type Culture Collection (ATCC, Manassas, VA, USA). The neuronal differentiation was carried out as previously described (Roloff et al., 2015, PLOS ONE e0118536:1-14; Roloff et al., 2013, BMC Neuroscience 14:141-155) with minor modifications. First, NT2/D1 cells were seeded in T-25 suspension culture flasks (REF #690190, Greiner bio-one, Germany). Each flask contained a minimum of 5×10^6 cells in 10 ml of DMEM/F12 supplemented with 10% fetal bovine serum (FBS), 1% penicillin and streptomycin and 10 μM retinoic acid (RA medium) to start neuronal differentiation. The cells were cultured for 3 days in free floating medium. At the end of the incubation, cells were trypsinized and collected by centrifugation, mechanically dispersed, and counted. Counted cells were seeded on Poly D-Lysine (PDL) coated cover slips (12 mm; diameter round, Fisher Scientific; GG-12-PDL) containing minimum of 0.1×10^5 cells in culture medium without RA. The next day, culture medium was replaced with RA medium containing 2% of FBS. These cells were cultured for 5 days, with a change of RA medium two days later. For the neuronal outgrowth assay, after cells had successfully attached and established under coverslips, the RA medium was replaced with one of the following: (1) test molecules at one of two different concentrations (10 μm or 1 μm); (2) positive control ROCK inhibitor Y-27632, (Dihydrochloride, Sigma-Aldrich); (2) positive control ibuprofen (14883-1G; Sigma-Aldrich), or (4) negative control culture medium containing 2% of FBS. Cells under these conditions were incubated for 48 hours under standard conditions (37° C., 5% CO2) in an incubator prior to the immunofluorescent assay.
For the immunofluorescent assay, the treated cells housed under coverslips were collected after 48 hours of drug treatments. These coverslips washed with calcium chloride-free and magnesium chloride-free phosphate buffered saline (PBS) pH 7.4 (Gibco, #70011-044) and fixed using paraformaldehyde (PFA) 4% in PBS (#J61899, thermoscientific) for 15 min at room temperature (RT) and washed three times with 0.01% of Triton-X100 in PBS (PBST) to remove remaining PFA and to permeabilize the cells. Unspecific binding sites were blocked with 5% Bovine Serum Albumin (BSA) solution (#9048-46-8, Millipore) in PBST for 60 minutes at RT. Rabbit monoclonal antibody β-III-Tubulin (1:5,000, ab52623, Abcam) was applied overnight (O/N) at 4° C. […] Finally, the immunofluorescence images were detected by using Olympus VS110 slide scanner microscope. […]

5-HT2A receptor = 5-HT2A receptor (Homo sapiens, UniProt P28223); test: 5-HT2A receptor radioligand competition assay (SPA)
5-HT2A receptor, sequence (P28223 whole entry): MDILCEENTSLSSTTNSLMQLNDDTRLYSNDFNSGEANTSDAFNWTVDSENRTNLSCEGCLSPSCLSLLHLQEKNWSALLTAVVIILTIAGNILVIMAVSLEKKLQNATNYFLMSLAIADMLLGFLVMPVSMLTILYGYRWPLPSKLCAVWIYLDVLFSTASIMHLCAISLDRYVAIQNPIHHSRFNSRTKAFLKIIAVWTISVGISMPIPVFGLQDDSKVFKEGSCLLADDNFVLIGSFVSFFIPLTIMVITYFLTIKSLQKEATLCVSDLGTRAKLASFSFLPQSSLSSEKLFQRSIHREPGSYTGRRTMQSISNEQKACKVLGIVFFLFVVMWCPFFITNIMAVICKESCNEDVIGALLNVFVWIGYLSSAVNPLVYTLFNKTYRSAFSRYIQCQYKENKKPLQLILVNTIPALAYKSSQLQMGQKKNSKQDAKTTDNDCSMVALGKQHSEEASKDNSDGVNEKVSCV

CC(Cc1ccc2c(c1)OCO2)N(C)CCc1c[nH]c2ccccc12 (stereo not drawn) [A(XXXII)]
Ki (5-HT1A receptor): 465 nM
neurite outgrowth (β-III-tubulin immunofluorescence) compared to negative control [1]: strong signs of neurite outgrowth
Ki (5-HT2A receptor): 465 nM

CC(Cc1ccc2c(c1)OCO2)NCCc1c[nH]c2ccccc12 (stereo not drawn) [A(XXXI)]
neurite outgrowth (β-III-tubulin immunofluorescence) compared to negative control [1]: strong signs of neurite outgrowth

C[C@@H](N)[C@H]1CC[C@H](C(=O)Nc2ccncc2)CC1 [Y-27632, reference compound]
neurite outgrowth (β-III-tubulin immunofluorescence) compared to negative control [1]: strong signs of neurite outgrowth

CC(C)Cc1ccc(C(C)C(=O)O)cc1 (stereo not drawn) [ibuprofen, reference compound]
neurite outgrowth (β-III-tubulin immunofluorescence) compared to negative control [1]: strong signs of neurite outgrowth

From US12428408B2, “Fused heterocyclic mescaline derivatives” (Enveric Biosciences Canada Inc., priority 2022, dated 2025)
